Patent publication US20250382305A1 (PTC THERAPEUTICS, INC., priority 2022, published 2025)

What was measured:
[1] = test system: Total ATXN3 (tATXN3) protein; assay: Endogenous Total ATXN3 (tATXN3) Protein Assay (MSD immunoassay of cell lysates); assay type: cell-based; settings: average IC50, total ATXN3 protein in cell lysate after 48 h with compound (Table 1)
Procedure, shortened: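 By electrochemiluminescent MSD sandwich immunoassay (mouse monoclonal capture, rabbit monoclonal and SULFO-TAG anti-rabbit detection), endogenous ATXN3 was quantified in lysates of cells treated 48 h at 37° C at 10,000 cells/well. Treatment used a 7-point 3.16-fold duplicate dilution series, with average IC50 grouped into star categories.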

[2] = test system: ATXN3 pre-mRNA; assay: RT-qPCR Assay to Quantify Exon 4 Skipping in ATXN3 pre-mRNA in Cells; assay type: cell-based; settings: percent exon 4 skipping in ATXN3 pre-mRNA, RT-qPCR of cell lysates; average IC50
Procedure, shortened: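 IC50 derives from a dose-response fit of percent exon 4 skipping, quantified by RT-qPCR on crude lysates. Compounds tested as 7-point 3.16-fold dilutions in duplicate; cells (10,000/well) were exposed for 24 h at 37 °C before lysis.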

Compound	IC50 [1] [nM]	IC50 [2] [nM]
CCc1c([C@@H]2CCCCC[C@H]2N)sc2c(NCc3cccs3)cc(Cl)nc12 (single isomer, unassigned) [Compound 86, 2-((1R,2R)-2-aminocycloheptyl)-5-chloro-3-ethyl-N-(thiophen-2-ylmethyl)thieno[3,2-b]pyridin-7-amine or 2-((1S,2S)-2-aminocycloheptyl)-5-chloro-3-ethyl-N-(thiophen-2-ylmethyl)thieno[3,2-b]pyridin-7-amine]	> 1000	> 1000
CCc1c([C@H]2CCCCC[C@@H]2N)sc2c(NCc3cccs3)cc(Cl)nc12 (single isomer, unassigned) [Compound 87, 2-((1S,2S)-2-aminocycloheptyl)-5-chloro-3-ethyl-N-(thiophen-2-ylmethyl)thieno[3,2-b]pyridin-7-amine or 2-((1R,2R)-2-aminocycloheptyl)-5-chloro-3-ethyl-N-(thiophen-2-ylmethyl)thieno[3,2-b]pyridin-7-amine]	30 to 300	30 to 300
N[C@H]1CCC[C@@H]1c1sc2c(NCc3cccs3)cc(Cl)nc2c1Cl [Compound 1, 2-((1S,2S)-2-aminocyclopentyl)-3,5-dichloro-N-(thiophen-2-ylmethyl)thieno[3,2-b]pyridin-7-amine]	≤ 30	≤ 30
N[C@@H]1CCC[C@H]1c1sc2c(NCc3cccs3)cc(Cl)nc2c1Cl [Compound 2, 2-((1R,2R)-2-aminocyclopentyl)-3,5-dichloro-N-(thiophen-2-ylmethyl)thieno[3,2-b]pyridin-7-amine]	> 1000	> 1000
N[C@@H]1CCC[C@@H]1c1sc2c(NCc3cccs3)cc(Cl)nc2c1Cl [Compound 3, 2-((1S,2R)-2-aminocyclopentyl)-3,5-dichloro-N-(thiophen-2-ylmethyl)thieno[3,2-b]pyridin-7-amine]	> 1000	> 1000
N[C@H]1CCC[C@H]1c1sc2c(NCc3cccs3)cc(Cl)nc2c1Cl [Compound 4, 2-((1R,2S)-2-aminocyclopentyl)-3,5-dichloro-N-(thiophen-2-ylmethyl)thieno[3,2-b]pyridin-7-amine]	30 to 300	30 to 300
Cc1c([C@@H]2CCC[C@H]2N)sc2c(NCc3cccs3)cc(Cl)nc12 [Compound 5, 2-((1R,2R)-2-aminocyclopentyl)-5-chloro-3-methyl-N-(thiophen-2-ylmethyl)thieno[3,2-b]pyridin-7-amine]	> 1000	> 1000
Cc1c([C@H]2CCC[C@@H]2N)sc2c(NCc3cccs3)cc(Cl)nc12 [Compound 6, 2-((1S,2S)-2-aminocyclopentyl)-5-chloro-3-methyl-N-(thiophen-2-ylmethyl)thieno[3,2-b]pyridin-7-amine]	30 to 300	30 to 300
N[C@@H]1CCC[C@H]1c1sc2c(NCc3cccs3)cc(Cl)nc2c1Br [Compound 7, 2-((1R,2R)-2-aminocyclopentyl)-3-bromo-5-chloro-N-(thiophen-2-ylmethyl)thieno[3,2-b]pyridin-7-amine]	300 to 1000	300 to 1000
N[C@H]1CCC[C@@H]1c1sc2c(NCc3cccs3)cc(Cl)nc2c1Br [Compound 8, 2-((1S,2S)-2-aminocyclopentyl)-3-bromo-5-chloro-N-(thiophen-2-ylmethyl)thieno[3,2-b]pyridin-7-amine]	≤ 30	≤ 30
N[C@@H]1CCC[C@@H]1c1cc2nc(Cl)cc(NCc3cccs3)c2s1 [Compound 9, 2-((1S,2R)-2-aminocyclopentyl)-5-chloro-N-(thiophen-2-ylmethyl)thieno[3,2-b]pyridin-7-amine]	> 1000	300 to 1000
N[C@H]1CCC[C@@H]1c1cc2nc(Cl)cc(NCc3cccs3)c2s1 [Compound 10, 2-((1S,2S)-2-aminocyclopentyl)-5-chloro-N-(thiophen-2-ylmethyl)thieno[3,2-b]pyridin-7-amine]	300 to 1000	300 to 1000
